Patent publication US6514538B1, “External preparations for skin whitening” (Shiseido Company, Ltd., priority 1999, dated 2003)

Test system: skin of an inner lateral part of the upper arm of testees exposed to summer sunlight
Assay: Whitening effect testing (lotion on sun-exposed skin of testees)
Assay type: in vivo, human
Conditions: blend ratio 1.0 wt %, applied twice a day for 4 weeks
Protocol: 66 testees were exposed to summer sunlight for 4 hours (2 hours a day for 2 days) and the skin of an inner lateral part of their upper arm was used as the subject of the test. […] The panel was divided into 11 groups with 6 persons in each group. Testing was conducted using lotion with the following formulas. [table] The water phase and the alcohol phase were prepared separately and then solubilized. The hypochromic effect after the application was evaluated based on the criteria below. ⊚: Very effective or effective on 80% or more of the testees ◯: Very effective or effective on 50% to less than 80% of the testees Δ: Very effective or effective on 30% to less than 50% testees ×: Very effective or effective on less than 30% of the testees Samples were prepared with the blend compositions described in the aforementioned test method, and the drugs listed in Table 2 were used to compare the whitening effect.

Oc1ccc(O)cc1 [Hydroquinone]
Effect (hypochromic effect after the application): Δ (Very effective or effective on 30% to less than 50% testees)
